Data published in patent US20250082652A1, “SIGNALLING-PATHWAY INHIBITOR COMBINATIONS FOR USE IN THE TREATMENT OF CANCER DISEASES” (UNIVERSITÄT ZU KÖLN, priority 2022, published 2025).

Legend:
Assay type in all cases: cell-based
[1] = tested on: murine cancer cell lines M108, M191, BSQ10, BSQ12.4, BSQ27, BWQ89.3; test: Cell viability (CellTiterGlo), IKK2 inhibitors with or without Nec1s and/or ABT-199, FIG. 3 A-F; details: 72 hrs; for synergistic killing of cancer cell lines (cell viability): ABT-199 combined with an IKK2 inhibitor (ML120B, BI605906 or PS1145), FIG. 3
Procedure: (§1) Murine (A-F) and human (G) cell lines were treated with IKK2 inhibitors in the absence or presence of a RIPK1 inhibitor and/or a BCL-2 inhibitor as indicated. Cell viability was measured after 72 hrs using CellTiterGlo assay. The data points represent mean values of independent experiments. A. The murine cell line M108 was treated with the IKK2 inhibitors ML120B, BI605906 and PS1145 in the absence or presence of the RIPK1 inhibitor Nec1s (10 μM or 20 μM, as indicated) and/or the BCL-2 inhibitor ABT-199 (125 nM or 250 nM as indicated). B. The murine cell line M191 was treated with the IKK2 inhibitors ML120B, PS1145 and BI605906 in the absence or presence of the RIPK1 inhibitor Nec1s (10 μM or 20 μM, as indicated) and/or the BCL-2 inhibitor ABT-199 (125 nM or 250 nM as indicated). C. The murine cell line BSQ10 was treated with the IKK2 inhibitors ML120B, PS1145 and BI605906 in the absence or presence of the RIPK1 inhibitor Nec1s (10 μM or 20 μM, as indicated) and/or the BCL-2 inhibitor ABT-199 (125 nM or 250 nM as indicated). D. The murine cell line BSQ12.4 was treated with the IKK2 inhibitors ML120B, PS1145 and BI605906 in the absence or presence of the RIPK1 inhibitor Nec1s (10 μM or 20 μM, as indicated) and/or the BCL-2 inhibitor ABT-199 (125 nM or 250 nM as indicated). E. The murine cell line BSQ27 was treated with the IKK2 inhibitors ML120B, PS1145 and BI605906 in the absence or presence of the RIPK1 inhibitor Nec1s (10 μM or 20 μM, as indicated) and/or the BCL-2 inhibitor ABT-199 (125 nM or 250 nM as indicated). F. The murine cell line BWQ89.3 was treated with the IKK2 inhibitors ML120B, PS1145 and BI605906 in the absence or presence of the RIPK1 inhibitor Nec1s (10 μM or 20 μM, as indicated) and/or the BCL-2 inhibitor ABT-199 (125 nM or 250 nM as indicated). G. The human cell line HBL1 was treated with the IKK2 inhibitors ML120B, PS1145 and BI605906 in the absence or presence of the RIPK1 inhibitor Nec1s (10 μM or 20 μM, as indicated) and/or the BCL-2 inhibitor ABT-199 (125 nM or 250 nM as indicated).
(§2) The murine MBC M-191, M-190, M-108, and M-552 cell lines were generated by adopting cells from murine Myd88p.L252P/wt;R26LSL.BCL2/wt;CD19Cre/wt tumors to cell culture conditions. BSQ10, BSQ12.4 and BSQ27 are stable cell lines generated from Cd79 bp.Y195H/wt;Myd88p.L252P/wt;R26LSL.BCL2/wt;CD19Cre/wt tumors. BWQ89.3 is a stable cell line derived from a murine Prdm1flox/flox;Myd88p.L252P/wt;R26LSL.BCL2/wt;CD19Cre/wt tumor. The MBC cell lines are derived from tumors spontaneously developing in mice that B cell-specifically express the Myd88 p.L252P mutation (the murine orthologue of the human p.L265P) from the endogenous locus in combination with a strong BCL2 overexpression derived from a Rosa26 knock-in allele. Both MYD88 mutations and BCL2 overexpression are frequently found in ABC-DLBCL and Myd88p.L252P/wt;R26LSL.BCL2/wt;CD19Cre/wt animals (abbreviated MBC) develop an ABC-DLBCL-like disease with high NF-kB activation (17).
Murine cell lines (FIG. 3 A-F) were cultured in DMEM media (Gibco) containing 10% FCS, 1% penicillin/[…] (Gibco), 6 ml L-glutamine (200 mM, Gibco), 6 ml sodium pyruvate (100 mM, Gibco), 6 ml HEPES (1 M), 6 ml non-essential amino acids (100×, Gibco), and 50 μM 2-mercaptoethanol. […] Cell viability of murine and human cell lines was measured after 72 hrs using CellTiterGlo assay. […]

[2] = tested on: human DLBCL cell line HBL1; test: Cell viability (CellTiterGlo), IKK2 inhibitors with or without Nec1s and/or ABT-199, FIG. 3 G; details: 72 hrs; for synergistic killing of cancer cell lines (cell viability): ABT-199 combined with an IKK2 inhibitor (ML120B, BI605906 or PS1145), HBL1, FIG. 3
Procedure: as §1
Murine cell lines (FIG. 3 A-F) were cultured in DMEM media (Gibco) containing 10% FCS, 1% penicillin/[…] (Gibco), 6 ml L-glutamine (200 mM, Gibco), 6 ml sodium pyruvate (100 mM, Gibco), 6 ml HEPES (1 M), 6 ml non-essential amino acids (100×, Gibco), and 50 μM 2-mercaptoethanol. Cells were plated in opaque 384-well plates at a density of 100.000 cells/ml (30 μl of culture volume) and treated with the indicated compounds dissolved in DMSO using a Tecan D300e digital dispenser. The human DLBCL cell line HBL1 (FIG. 3 G) was cultured in RPMI (Gibco) containing 20% FCS (Gibco) and 1% penicillin/[…] (Gibco) and treated with the indicated compounds dissolved in DMSO using a Tecan D300e digital dispenser. Cell viability of murine and human cell lines was measured after 72 hrs using CellTiterGlo assay. The data points represent mean values of independent experiments.

[3] = tested on: MBC M-191, M-190, M-108, and M-552 cell lines (murine ABC-DLBCL cell lines); test: Cell viability (CellTiter-Glo), single inhibitors; details: single agent, 72 hours, FIG. 1
Procedure: The murine MBC lines M-191, M-190, M-108 and M-552 were treated with (A) the IKK2 inhibitor LY-2409881 (0, 0.185, 0.556, 1.667, 5, 15 μM) or (B) the BCL-2 inhibitor ABT-199 (0, 11.1, 33.3, 100, 300 nM) for 72 hours and cell viability was measured by CellTiter-Glo®. The illustrations in FIG. 1 represent three independent experiments.
as §2, with “(17). […]” for “(17).”

[4] = tested on: murine MBC cell lines M-108, M-191, and M-552; test: Cell viability (CellTiter-Glo), ABT-199 and/or ML120B; details: ABT-199 combined with ML120B, 72 hours, M108, M191 and M552, FIG. 2
Procedure: The murine MBC lines M-191, M-190, M-108 and M-552 were treated with ABT-199 and/or IKK2-inhibitor ML120B at the indicated doses for 72 hours and cell viability was measured by CellTiter-Glo®. The illustrations in FIG. 2 represent two independent experiments. To test the pharmacological inhibition potential of IKK2 and BCL-2 to kill lymphoma cells, MBC M-191, M-190, M-108, and M-552 cell lines were cultured in DMEM media (Gibco) containing 10% FCS, 1% penicillin/[…] (Gibco), 6 ml L-glutamine (200 mM, Gibco), 6 ml sodium pyruvate (100 mM, Gibco), 6 ml HEPES (1 M), 6 ml non-essential amino acids (100×, Gibco), 50 μM 2-mercaptoethanol. Then, cell viability assays were used to test the pharmacological inhibition potential of IKK2 (using the inhibitor LY2409881) and BCL-2 (using the inhibitor ABT-199) to kill the MBC M-191, M-190, M-108, and M-552 cell lines. […] After an incubation time of 15 minutes, the luminescence signal was read on a plate reader (Tecan). All conditions were measured in triplicate, randomized across the plate and the DMSO concentration in each well was adjusted to maximum DMSO concentration (0.4%) in all wells, and normalized to untreated conditions. […]

[5] = tested on: IL-1β production by macrophages; test: LPS-induced production of IL-1β by macrophages treated with IKK inhibitors; details: pharmacological RIPK1 inhibition

Row | SMILES | synergistic killing of cancer cell lines (cell viability) [1] | synergistic killing of cancer cell lines (cell viability) [2] | synergistic killing of cancer cell lines (cell viability) [4] | also measured
1 | O=C(Nc1cc(Cl)cc2c1[nH]c1cnccc12)c1cccnc1 [PS1145] | synergize to potentiate killing | synergize to potentiate killing |  | 
2 | CC1(C)CCC(CN2CCN(c3ccc(C(=O)NS(=O)(=O)c4ccc(NCC5CCOCC5)c([N+](=O)[O-])c4)c(Oc4cnc5[nH]ccc5c4)c3)CC2)=C(c2ccc(Cl)cc2)C1 [ABT-199] | synergize to potentiate killing | synergize to potentiate killing | synergize to potentiate killing | killing of lymphoma cells (cell viability) [3]: strong toxicity
3 | CN1C(=O)NC(Cc2c[nH]c3c(Cl)cccc23)C1=O (centres unmarked) [Nec1s, 5-((7-chloro-1H-indol-3-yl)methyl)-3-methyl-2,4-imidazolidinedione] |  |  |  | effect of simultaneous RIPK1 inhibitor treatment on the synergizing killing effect of ABT-199 and IKK2 inhibitors ([1]; Nec1s 10 μM or 20 μM): not prevented; effect of simultaneous RIPK1 inhibitor treatment on the synergizing killing effect of ABT-199 and IKK2 inhibitors ([2]; Nec1s 10 μM or 20 μM, HBL1): not prevented
4 | CN1C(=O)C(Cc2c[nH]c3ccccc23)NC1=S (centres unmarked) [Necrostatin-1, 5-(1H-indol-3-ylmethyl)-3-methyl-2-thioxo-4-imidazolidinone] |  |  |  | LPS-induced production of IL-1β [5]: strongly diminishes
5 | COc1c(Cl)cc2c([nH]c3cnccc32)c1NC(=O)c1cccnc1C [ML120B, N-(6-chloro-7-methoxy-9H-beta-carbolin-8-yl)-2-methylnicotinamide] | synergize to potentiate killing | synergize to potentiate killing | synergize to potentiate killing | 
6 | CCC(F)(F)c1cc(N2CCC(S(C)(=O)=O)CC2)nc2sc(C(N)=O)c(N)c12 [BI605906] | synergize to potentiate killing | synergize to potentiate killing |  | 
